How the values were obtained:
[1] = system: amaranthus retroflexus L.; test: herbicidal activity, soil treatment one day after sowing; assay type: in vivo
Text: (§1) The infesting species and the agrarian species have been indicated in Table 1 by letters, as follows:
A = amaranthus retroflexus L.
(§2) Method of evaluation of the results (of tests):
(§3) 1 slight differences with respect to the control;
(§4) 3 = considerable activity with damages that definitely impair the further development of most of the small plants; an activity degree already useful for practical purposes;
(§5) 4 = maximum of activity with lack of germination or total containment of the small plants in the emerging stage.
(§6) In the case of an intermediate activity between two classes of the scale, both values are recorded with the one which corresponds to the preeminent activity preceding.
(§7) TABLE 2 reports the activity data of other compounds that fall within the class which is the object of this invention.
(§8) TABLE 3 reports data on the herbicidal activity against infesting herbs, while TABLE 4 reports data concerning the activity on useful species of agricultural cultivations. These tables employ the criterion explained previously. […]

[2] = system: artemisia vulgaris L.; test: as above; assay type: in vivo
Text: as §1
B = artemisia vulgaris L.
as §2, §3, §4, §5, §6, §7, §8

[3] = system: chenopodium album L.; test: as above; assay type: in vivo
Text: as §1, §2, §3, §4, §5, §6, §7, §8

[4] = system: echinocloa crus-galli R.S.; test: as above; assay type: in vivo
Text: as §1
D = echinocloa crus-galli R.S.
as §2, §3, §4, §5, §6, §7, §8

[5] = system: setaria glauca L.; test: as above; assay type: in vivo
Text: as §1, §2, §3, §4, §5
(§9) In the case of an intermediate activity between two classes of the scale, both values are recorded with the one which corresponds to the preeminent activity preceding. […]
as §8

[6] = system: vicia sativa L.; test: as above; assay type: in vivo
Text: as §1, §2, §3, §4, §5, §6, §7

[7] = system: avena sativa (oats); test: activity on agrarian species, soil treatment one day after sowing; assay type: in vivo, Avena sativa L.; settings: in vivo
Text: as §1, §2
(§10) 0 = no activity and no difference with respect to the control;
as §3, §4, §5, §6, §7
(§11) TABLE 3 reports data on the herbicidal activity against infesting herbs, while TABLE 4 reports data concerning the activity on useful species of agricultural cultivations. These tables employ the criterion explained previously. The product was spread on the soil one day after sowing, in quantities of 1, 3, 6, 8, 10, 12 and 14 kg/ha.

[8] = system: phaseolus vulgaris (bean); test: as above; assay type: in vivo, Phaseolus vulgaris L.; settings: in vivo
Text: as §1
I = phaseolus vulgaris (bean)
as §2, §10, §3, §4, §5, §6, §7, §11

[9] = system: pisum sativum L. (pea); test: as above; assay type: in vivo; settings: in vivo
Text: as §1
L = pisum sativum L. (pea)
as §2, §10, §3, §4, §5, §6, §7, §8

[10] = system: solanum Lycopersicum L.; test: as above; assay type: in vivo; settings: in vivo
Text: as §1
M = solanum Lycopersicum L.
as §2, §10, §3, §4, §5, §9

[11] = system: triticum vulgare L. (wheat); test: as above; assay type: in vivo; settings: in vivo
Text: as §1
N = triticum vulgare L. (wheat)
as §2, §10, §3, §4, §5, §6, §7, §11

[12] = system: zea mais L. (corn); test: as above; assay type: in vivo; settings: in vivo
Text: as §1, §2, §10, §3, §4, §5, §6, §7, §11

[13] = system: oryza sativa L. (rice); test: as above; assay type: in vivo; settings: in vivo
Text: as §1
P = oryza sativa L. (rice)
as §2, §10, §3, §4, §5, §6, §7, §11

[14] = system: beta vulgaris L. (sugar-beet); test: as above; assay type: in vivo; settings: in vivo
Text: as §1
H = beta vulgaris L. (sugar-beet)
as §2, §10, §3, §4, §5, §6, §7, §11

SMILES	activity on A, 0-4 scale ([1]; 2 kg/ha)	activity on A, 0-4 scale ([1]; 6 kg/ha)	activity on B, 0-4 scale ([2]; 4 kg/ha)	activity on B, 0-4 scale ([2]; 6 kg/ha)	activity on C, 0-4 scale ([3]; 2 kg/ha)	activity on C, 0-4 scale ([3]; 4 kg/ha)	activity on C, 0-4 scale ([3]; 6 kg/ha)	activity on D, 0-4 scale ([4]; 2 kg/ha)	activity on D, 0-4 scale ([4]; 4 kg/ha)	activity on D, 0-4 scale ([4]; 6 kg/ha)	activity on E, 0-4 scale ([5]; 2 kg/ha)	activity on E, 0-4 scale ([5]; 6 kg/ha)	activity on F, 0-4 scale ([6]; 2 kg/ha)	activity on F, 0-4 scale ([6]; 6 kg/ha)	activity on G, 0-4 scale [7]	activity on I, 0-4 scale [8]	activity on L, 0-4 scale [9]	activity on N, 0-4 scale [11]	activity on O, 0-4 scale [12]	activity on P, 0-4 scale [13]	further results
CCC(C)N(C(=O)c1ccc(C)c(Cl)c1)C(C)CC (centres unmarked) [PA445, 3-chloro,4-methyl-N,N-di-sec.butyl-benzamide]	0-1	2	2	3-4	1	2-3	4	3	3-4	4	3-4	4	0	0-1	0	0	0	0	0	0	activity on A, 0-4 scale ([1]; 4 kg/ha): 1; activity on B, 0-4 scale ([2]; 2 kg/ha): 1; activity on F, 0-4 scale ([6]; 4 kg/ha): 0; activity on M, 0-4 scale [10]: 0
CCC(C)N(C(=O)c1cccc(Br)c1)C(C)CC (centres unmarked) [PA337/3/Br, 3-bromo-N,N-di-sec.butyl-benzamide]	1	–	1	3	1	3	4	2	4	4	2-3	4	0-1	–	0	–	0	0	0	0	activity on A, 0-4 scale ([1]; 4 kg/ha): 2-3; activity on E, 0-4 scale ([5]; 4 kg/ha): 4; activity on H, 0-4 scale [14]: 1
CCC(C)N(C(=O)c1cc(Cl)c(Cl)cc1Cl)C(C)CC (centres unmarked) [PA338, 2,4,5-trichloro-N,N-di-sec.butyl-benzamide]	–	2	–	1-2	–	–	2	2-3	3	3-4	2-3	3-4	–	0-1	0	0	0	0	0	0	activity on E, 0-4 scale ([5]; 4 kg/ha): 3
CCC(C)N(C(=O)c1ccc(Cl)c(Cl)c1Cl)C(C)CC (centres unmarked) [PA488, 2,3,4-trichloro-N,N-di-sec.butyl-benzamide]	0	3-4	0-1	–	1-2	3	3	3-4	4	4	–	4	0	0	0	0	0	0	–	0	activity on A, 0-4 scale ([1]; 4 kg/ha): 1; activity on B, 0-4 scale ([2]; 2 kg/ha): 0; activity on D, 0-4 scale ([4]; 1 kg/ha): 2; activity on E, 0-4 scale ([5]; 4 kg/ha): 4; activity on F, 0-4 scale ([6]; 4 kg/ha): 0
CCC(C)N(C(=O)c1ccc(Br)c(C)c1)C(C)CC (centres unmarked) [PA481, 3-methyl,4-bromo-N,N-di-sec.butyl-benzamide]	–	–	–	3	–	–	2-3	–	–	–	–	3-4	–	0-1	0	0	0	0	0	0	–
CCC(C)N(C(=O)c1cc(Cl)ccc1Cl)C(C)CC (centres unmarked) [PA412, 2,5-dichloro-N,N-di-sec.butyl-benzamide]	–	3	–	2	–	–	2-3	3	–	4	3	4	–	0	0	0	0	0	0	0	activity on A, 0-4 scale ([1]; 3 kg/ha): 2; activity on B, 0-4 scale ([2]; 3 kg/ha): 1; activity on C, 0-4 scale ([3]; 3 kg/ha): 1-2; activity on D, 0-4 scale ([4]; 1 kg/ha): 1-2; activity on D, 0-4 scale ([4]; 3 kg/ha): 3-4; activity on E, 0-4 scale ([5]; 1 kg/ha): 3; activity on E, 0-4 scale ([5]; 3 kg/ha): 4; activity on F, 0-4 scale ([6]; 3 kg/ha): 0; activity on M, 0-4 scale [10]: 1
CCC(C)N(C(=O)c1cccc(I)c1)C(C)CC (centres unmarked) [PA491, 3-iodo-N,N-di-sec.butyl-benzamide]	1	3-4	3	4	2	2-3	3-4	3	–	4	3	4	0	1	0	0	0	0	0	0	activity on A, 0-4 scale ([1]; 4 kg/ha): 1-2; activity on B, 0-4 scale ([2]; 2 kg/ha): 1; activity on F, 0-4 scale ([6]; 4 kg/ha): 0
CCN(CC)C(=O)c1cccc(Cl)c1 [PA321, 3,chloro-N,N-diethyl-benzamide, reference compound]	–	1-2	–	2	–	–	1-2	–	–	1	–	1	–	1	1	1-0	2	2-3	0-1	2	–
CCC(C)N(C(=O)c1cccc(Cl)c1Cl)C(C)CC (centres unmarked) [PA336, 2,3-dichloro-N,N-di-sec.butyl-benzamide]	2-3	4	2	3	2	3	–	3-4	4	4	–	4	0	0	0	0	0	–	0	0	activity on B, 0-4 scale ([2]; 2 kg/ha): 1; activity on E, 0-4 scale ([5]; 4 kg/ha): 4; activity on F, 0-4 scale ([6]; 4 kg/ha): 0
NC(=O)c1ccccc1Cl [C, 2,chloro-benzamide, reference compound]	–	2	–	1	–	–	2	–	–	0-1	–	0	–	2-3	–	–	–	0-1	–	0-1	–
CCC(C)N(C(=O)c1ccccc1Cl)C(C)CC (centres unmarked) [PA215 2,chloro-N,N-disec.butyl-benzamide, 2-chloro-N,N-di-sec.butyl-benzamide]	–	2	–	1	–	–	0-1	–	–	2-3	–	3	–	0	0	0	0	–	0	0	–

Source: US3982931A, “N,N-di-sec.butyl-benzamide herbicides” (priority 1967, dated 1976)
